Key:
[1] = test system: MDR1; assay: in vitro; conditions: dog; for Papp A→B at 120 min, 5 μM: MDCK-MDR1, pH 7.4, MDCK-MDR1: Papp A-B (10^−6, cm/s); for Papp B→A at 120 min, 5 μM: MDCK-MDR1, pH 7.4, MDCK-MDR1: Papp B-A (10^−6, cm/s)
[2] = test system: MDR1 (P-gp); assay: MDCK-MDR1 permeability assay, blood-brain-barrier penetration potential; conditions: dog, MDCK-MDR1, pH 7.4, MDCK-MDR1 Efflux Ratio
[3] = test system: SMN protein; assay: SMN protein assay (MSD) in SMA patient fibroblasts (GM03813); assay type: cell-based, human
Description: Compounds are tested on spinal muscular atrophy (SMA) patient fibroblasts (GM03813, Coriell) at doses ranging from 2.5 μM to 0.6 nM. 7000 cells/well are seeded in 96-well plates. Compounds are incubated for 48 hours and the cells were lysed with 100 μL of lysis buffer. 20 μL of lysate is used for SMN protein measurement by Mesoscale Discovery (MSD) assay developed by PharmOptima (Michigan). A standard curve prepared with SMN protein ranging from […] is used in each MSD plate to calculate the absolute SMN protein amount in each sample.

[4] = test system: MDR1-MDCK cell monolayers; conditions: dog, MDCK-MDR1, 120 min, 5 μM, pH 7.4

Row | Structure (SMILES) | Papp A→B at 120 min, 5 μM [1] | Papp B→A at 120 min, 5 μM [1] | efflux ratio at 120 min, 5 μM [2] | EC50 [3] | MDCK-MDR1: % Recov A-B (%) [4] | MDCK-MDR1: % Recov B-A (%) [4]
1 | C[C@@]12CC[C@@](C)(N1)[C@@H](F)[C@@H](Oc1cnc(-c3ccc(-c4cn[nH]c4)cc3O)cn1)C2 [Compound 2E1, 2-(5-(((1R,2R,35,5S)-2-fluoro-1,5-dimethyl-8-azabicyclo[3.2.1]octan-3-yl)oxy)pyrazin-2-yl)-5-(1H-pyrazol-4-yl)phenol] | 7.93 ×10⁻⁶ cm/s | 40.7 ×10⁻⁶ cm/s | 5 | 501 to 10000 nM | 71% | 86%
2 | Oc1cc(-n2ccnn2)c(F)cc1-c1cnc(N(C2CC2)[C@H]2C[C@@H]3CCC(N3)[C@H]2F)cn1 (single isomer, unassigned) [Compound 11E2] | 6.21 ×10⁻⁶ cm/s | 41.1 ×10⁻⁶ cm/s | 7 | 501 to 10000 nM | 69% | 72%
3 | Cn1cc(-c2ccc(-c3cnc(N(C4CC4)[C@@H]4C[C@@]5(C)CC[C@](C)(N5)[C@@H]4F)cn3)c(O)c2)cn1 [Compound 75E1, 2-(5-(cyclopropyl((1S,2R,3R,5R)-2-fluoro-1,5-dimethyl-8-azabicyclo[3.2.1]octan-3-yl)amino)pyrazin-2-yl)-5-(1-methyl-1H-pyrazol-4-yl)phenol] | 2.11 ×10⁻⁶ cm/s | 16.1 ×10⁻⁶ cm/s | 8 | 501 to 10000 nM | 40% | 70%
4 | Cc1nc(-c2ccc(-c3cnc(N(C)[C@@H]4CC5CC[C@H](N5)[C@@H]4F)cn3)c(O)c2)no1 (single isomer, unassigned) [Compound 69E1] | 9.43 ×10⁻⁶ cm/s | 17.9 ×10⁻⁶ cm/s | 2 | 501 to 10000 nM | 49% | 61%
5 | COc1cc(-c2cc(O)c(-c3cnc(N(C4CC4)[C@@H]4CC5CC[C@H](N5)[C@@H]4F)cn3)cc2F)cc(F)n1 (single isomer, unassigned) [Compound 37E1] | 1.41 ×10⁻⁶ cm/s | 2.73 ×10⁻⁶ cm/s | 2 | 501 to 10000 nM | 18% | 53%
6 | O=c1cc(-c2cc(O)c(-c3cnc(N(C4CC4)[C@@H]4CC5CC[C@H](N5)[C@@H]4F)cn3)cc2F)ccn1CF (single isomer, unassigned) [Compound 39E1] | 2.1 ×10⁻⁶ cm/s | 64.2 ×10⁻⁶ cm/s | 31 | 501 to 10000 nM | 70% | 89%
7 | COc1cc(-c2cc(O)c(-c3cnc(N(C4CC4)[C@@H]4CC5CC[C@H](N5)[C@@H]4F)cn3)cc2F)ccn1 (single isomer, unassigned) [Compound 36E1] | 0.52 ×10⁻⁶ cm/s | 1.41 ×10⁻⁶ cm/s | 3 | 501 to 10000 nM | 8% | 37%
8 | CN(c1cnc(-c2ccc(C3=CCOC3)cc2O)cn1)[C@H]1C[C@@H]2CCC(N2)[C@H]1F (single isomer, unassigned) [Compound 84E2] | 4.64 ×10⁻⁶ cm/s | 14.9 ×10⁻⁶ cm/s | 3 | 16 to 50 nM | 28% | 66%
9 | CN(c1cnc(-c2cc(F)c(-c3cn[nH]c3)cc2O)cn1)[C@@H]1CC2N[C@H](C1)CC2(F)F (single isomer, unassigned) [Compound 65E2] | 28.3 ×10⁻⁶ cm/s | 37.7 ×10⁻⁶ cm/s | 1 | 501 to 10000 nM | 54% | 63%
10 | Oc1cc(-c2cn[nH]c2)c(F)cc1-c1cnc(N(C2CC2)[C@H]2C[C@@H]3CCC(N3)[C@H]2F)cn1 (single isomer, unassigned) [Compound 41E2] | 6.09 ×10⁻⁶ cm/s | 34.4 ×10⁻⁶ cm/s | 6 | 101 to 500 nM | 54% | 72%
11 | COc1cc(-c2ccc(-c3cnc(N(C)[C@H]4C[C@@H]5CCC(N5)[C@H]4F)cn3)c(O)c2)ncn1 (single isomer, unassigned) [Compound 48E2] | 5.38 ×10⁻⁶ cm/s | 13.8 ×10⁻⁶ cm/s | 3 | 51 to 100 nM | 28% | 57%
12 | CN(c1cnc(-c2ccc(-c3ccn(C)c(=O)c3)cc2O)cn1)[C@H]1C[C@@H]2CCC(N2)[C@H]1F (single isomer, unassigned) [Compound 45E2] | 1.9 ×10⁻⁶ cm/s | 65.6 ×10⁻⁶ cm/s | 35 | 51 to 100 nM | 87% | 87%
13 | CN(c1cnc(-c2cc(F)c(C3=CC(F)NC(F)=C3)cc2O)cn1)[C@@H]1C[C@@]2(C)CC[C@](C)(N2)[C@@H]1F (single isomer, unassigned) [Compound 63E1] | 0.7 ×10⁻⁶ cm/s | 0.45 ×10⁻⁶ cm/s | 1 | 501 to 10000 nM | 18% | 35%
14 | CN(c1cnc(-c2ccc(-c3cc[nH]c(=O)c3)cc2O)cn1)[C@H]1C[C@@H]2COCC(N2)[C@H]1F (single isomer, unassigned) [Compound 82E2] | 0.27 ×10⁻⁶ cm/s | 32.2 ×10⁻⁶ cm/s | 120 | 501 to 10000 nM | 45% | 54%
15 | C[C@]12CC[C@](C)(N1)[C@H](F)[C@H](Oc1cnc(-c3ccc(-c4cn[nH]c4)cc3O)cn1)C2 [Compound 2E2, 2-(5-(((1S,2S,3R,5R)-2-fluoro-1,5-dimethyl-8-azabicyclo[3.2.1]octan-3-yl)oxy)pyrazin-2-yl)-5-(1H-pyrazol-4-yl)phenol] | 9.6 ×10⁻⁶ cm/s | 34.7 ×10⁻⁶ cm/s | 4 | 501 to 10000 nM | 71% | 79%
16 | CN(c1cnc(-c2cc(F)c(-c3cnn(CF)c3)cc2O)cn1)[C@@H]1CC2CC[C@H](N2)[C@@H]1F (single isomer, unassigned) [Compound 29E1] | 6.29 ×10⁻⁶ cm/s | 17.2 ×10⁻⁶ cm/s | 3 | 16 to 50 nM | 38% | 56%
17 | COc1cc(-c2ccc(-c3cnc(N(C4CC4)[C@@H]4CC5CC[C@H](N5)[C@@H]4F)cn3)c(O)c2)ccn1 (single isomer, unassigned) [Compound 51E1] | 1.5 ×10⁻⁶ cm/s | 3.19 ×10⁻⁶ cm/s | 2 | 501 to 10000 nM | 8% | 34%
18 | CN(c1cnc(-c2cc(F)c(-c3cnn(C)c3)cc2O)cn1)[C@@H]1C[C@@]2(C)CC[C@](C)(N2)[C@@H]1F [Compound 58E1, 4-fluoro-2-(5-(((1S,2R,3R,5R)-2-fluoro-1,5-dimethyl-8-azabicyclo[3.2.1]octan-3-yl)(methyl)amino)pyrazin-2-yl)-5-(1-methyl-1H-pyrazol-4-yl)phenol] | 7.67 ×10⁻⁶ cm/s | 22.1 ×10⁻⁶ cm/s | 3 | 101 to 500 nM | 37% | 64%
19 | CN(c1cnc(-c2ccc(-c3nnco3)cc2O)cn1)[C@@H]1CC2CC[C@H](N2)[C@@H]1F (single isomer, unassigned) [Compound 80E1] | 5.24 ×10⁻⁶ cm/s | 21.5 ×10⁻⁶ cm/s | 4 | 101 to 500 nM | 63% | 76%
20 | COc1cc(-c2cc(O)c(-c3cnc(N(C)[C@@H]4CC5CC[C@H](N5)[C@@H]4F)cn3)cc2F)ccn1 (single isomer, unassigned) [Compound 30E1] | 3.95 ×10⁻⁶ cm/s | 5.24 ×10⁻⁶ cm/s | 1 | 501 to 10000 nM | 13% | 49%
21 | CN(c1cnc(-c2cc(F)c(-c3cnn(C)c3)cc2O)cn1)[C@@H]1CC2CC(F)(F)[C@@H](C1)N2 (single isomer, unassigned) [Compound 66E1] | 21.9 ×10⁻⁶ cm/s | 20.7 ×10⁻⁶ cm/s | 1 | 101 to 500 nM | 42% | 51%
22 | CN(c1cnc(-c2ccc3ccncc3c2O)cn1)[C@H]1C[C@@H]2CCC(N2)[C@H]1F (single isomer, unassigned) [Compound 71E2] |  |  |  | 16 to 50 nM |  | 
23 | Cc1noc(-c2ccc(-c3cnc(N(C)[C@H]4C[C@@H]5CCC(N5)[C@H]4F)cn3)c(O)c2)n1 (single isomer, unassigned) [Compound 70E2] |  |  |  | 101 to 500 nM |  | 
24 | Cc1noc(-c2ccc(-c3cnc(N(C)[C@@H]4CC5CC[C@H](N5)[C@@H]4F)cn3)c(O)c2)n1 (single isomer, unassigned) [Compound 70E1] |  |  |  | 501 to 10000 nM |  | 
25 | CN(c1cnc(-c2cc(F)c(C3=CC(F)NC(F)=C3)cc2O)cn1)[C@H]1C[C@]2(C)CC[C@@](C)(N2)[C@H]1F (single isomer, unassigned) [Compound 63E2] | 0.58 ×10⁻⁶ cm/s | 0.22 ×10⁻⁶ cm/s |  | 501 to 10000 nM | 19% | 24%

Source: US11964971B2, “Methods and compositions for modulating splicing” (Skyhawk Therapeutics, Inc., priority 2019, dated 2024)
